Results on seven compounds are retold here after patent US20240158446A1, “CYCLIC COMPOUND HAVING SELECTIVE INHIBITORY ACTION ON KRAS OVER HRAS AND NRAS” (CHUGAI SEIYAKU KABUSHIKI KAISHA, priority 2021, published 2024).

The target of assay [1] is GDP-bound NRAS wild-type protein (Homo sapiens, UniProt P01111). As to the kind of experiment: Binding to NRAS by surface plasmon resonance (SPR), Single Cycle Kinetics. As to conditions: for NRAS/KRAS (ratio of KD value for NRAS to KD value for KRAS): GDP-bound NRAS wild-type protein vs GDP-bound KRAS wild-type protein.
The target in assay [2] is GDP-bound KRAS wild-type protein (Homo sapiens, UniProt P01116). As to the kind of experiment: Binding to KRAS by surface plasmon resonance (SPR), Single Cycle Kinetics. As to conditions: GDP-bound KRAS wild-type protein, read-out: KRAS KD.
Assay [3] concerns the target GDP-bound HRAS wild-type protein (Homo sapiens, UniProt P01112). As to the kind of experiment: Binding to HRAS by surface plasmon resonance (SPR), Single Cycle Kinetics. To be noted: for HRAS/KRAS (ratio of KD value for HRAS to KD value for KRAS): GDP-bound HRAS wild-type protein vs GDP-bound KRAS wild-type protein.
In assay [4] the test system is human lung cancer strain NCI-H441.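 Further: cell proliferation inhibition after four days measured by CellTiter-Glo.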
The mark [5] stands for this setting: SPR, Single Cycle Kinetics, 1:1 binding model.

Structures are written as SMILES. Read-outs that look alike come from different tables or passages of the source.

Chain of GDP-bound HRAS wild-type protein (P01112 whole entry): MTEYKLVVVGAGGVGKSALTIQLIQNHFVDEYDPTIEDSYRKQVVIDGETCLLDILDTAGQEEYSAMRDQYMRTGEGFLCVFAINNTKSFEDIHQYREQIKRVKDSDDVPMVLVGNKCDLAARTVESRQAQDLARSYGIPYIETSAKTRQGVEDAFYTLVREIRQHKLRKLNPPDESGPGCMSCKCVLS
Chain of GDP-bound NRAS wild-type protein (P01111 whole entry): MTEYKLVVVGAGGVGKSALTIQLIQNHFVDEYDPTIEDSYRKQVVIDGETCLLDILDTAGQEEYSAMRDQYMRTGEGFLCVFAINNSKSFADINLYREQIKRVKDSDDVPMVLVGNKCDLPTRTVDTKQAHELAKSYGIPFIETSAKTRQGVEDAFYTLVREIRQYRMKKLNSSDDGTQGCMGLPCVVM
Chain of GDP-bound KRAS wild-type protein (P01116 whole entry): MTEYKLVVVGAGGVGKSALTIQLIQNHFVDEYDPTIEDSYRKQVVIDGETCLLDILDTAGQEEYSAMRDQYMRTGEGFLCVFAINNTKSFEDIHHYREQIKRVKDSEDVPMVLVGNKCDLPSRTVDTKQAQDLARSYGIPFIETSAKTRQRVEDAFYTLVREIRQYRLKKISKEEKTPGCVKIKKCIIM

On to `CC[C@H](C)[C@@H]1NC(=O)[C@@H]2CCCCc3ccc(cc3)C[C@@H](C(=O)N(C)CC(=O)N[C@@H](CCc3ccc(C(F)(F)F)c(OC)c3)C(=O)N3C[C@H](OC4CCC4)C[C@H]3C(=O)NC3(CC(C)(C)C3)C(=O)N(C)[C@@H](C3CCCC3)C(=O)N(C)[C@H](C(=O)N(C)CC)CC(=O)N2C)N2CC/C=C\C[C@@H](C2=O)N(C)C(=O)CN(C)C1=O` [PP3079], for which the “NRAS/KRAS (ratio of KD value for NRAS to KD value for KRAS)” value in assay [1] (SPR) is “A (a compound having 10 or more and less than 20 is denoted as A)”. Moreover, in assay [1] (SPR, KD(NRAS)/KD(KRAS)), the “ratio of the KD value with respect to GDP-bound NRAS wild-type protein to the KD value with respect to KRAS” value was “A (a compound having 10 or more and less than 20 is denoted as A)”. Further, in assay [2] (SPR, Single Cycle Kinetics), the Kd worked out at 0.05 nM. For the same compound, the “HRAS/KRAS (ratio of KD value for HRAS to KD value for KRAS)” value in assay [3] (SPR) was “B (a compound having 3 or more and less than 10 is denoted as B)”. In addition, the “ratio of the KD value with respect to GDP-bound HRAS wild-type protein to the KD value with respect to KRAS” value in assay [3] (SPR, KD(HRAS)/KD(KRAS)) was “B (a compound having 3 or more and less than 10 is denoted as B)”. Besides, the IC50 in assay [4] came to 1.8 nM; in assay [4] (read-out: NCI-H441 cell proliferation inhibitory activity, 50% proliferation inhibitory concentration (IC50 value), NCI-H441, four days, CellTiter-Glo), 1.8 nM.
For the compound `CCCCCC[C@H]1C(=O)N[C@@H]([C@@H](C)CC)C(=O)N(C)CC(=O)N(C)[C@H]2C/C=C\CCN(C2=O)[C@@H](Cc2ccc(C(F)(F)F)cc2)C(=O)N(C)CC(=O)N[C@@H](CCc2cc(F)c(C(F)(F)F)c(F)c2)C(=O)N2C[C@H](OCC)C[C@H]2C(=O)NC2(CCC2)C(=O)N(C)[C@@H](C2CCCC2)C(=O)N(C)[C@H](C(=O)N(C)C)CC(=O)N1C` [PP1242, (2S,8S,12R,14S,20S,23S,27S,30S,36S,38Z)-20-cyclopentyl-8-[2-[3,5-difluoro-4-(trifluoromethyl)phenyl]ethyl]-12-ethoxy-27-hexyl-N,N,4,19,22,26,32,35-octamethyl-30-[(1S)-1-methylpropyl]-3,6,9,15,18,21,25,28,31,34,42-undecaoxo-2-[[4-(trifluoromethyl)phenyl]methyl]spiro[1,4,7,10,16,19,22,26,29,32,35-undecazatricyclo[34.5.1.0^10,14]dotetracont-38-ene-17,1′-cyclobutane]-23-carboxamide], the “NRAS/KRAS (ratio of KD value for NRAS to KD value for KRAS)” value in assay [1] (SPR, KD ratio class) was “A (a compound having 10 or more and less than 20 is denoted as A)”. The Kd in assay [2] (setting [5]) came out at 0.076 nM. In addition, in assay [3] (SPR, KD ratio class), the “HRAS/KRAS (ratio of KD value for HRAS to KD value for KRAS)” value is “A (a compound having 10 or more and less than 20 is denoted as A)”. Besides, in assay [4], the IC50 was 12.8 nM.
Take `CCC[C@H]1C(=O)N[C@@H]([C@@H](C)CC)C(=O)N(C2CC2)CC(=O)N(C)[C@H]2C/C=C\CCN(C2=O)[C@@H](Cc2ccc(C)cc2)C(=O)N(C)CC(=O)N[C@@H](CCc2ccc(C(F)(F)F)c(OC)c2)C(=O)N2C[C@H](OCC)C[C@H]2C(=O)NC2(CC(C)(C)C2)C(=O)N(C)[C@@H](CC(C)(C)C)C(=O)N(C)[C@H](C(=O)N(C)C)CC(=O)N1C` [PP2722]: the “NRAS/KRAS (ratio of KD value with respect to GDP-bound NRAS wild-type protein to KD value with respect to KRAS)” value in assay [1] (SPR KD ratio NRAS/KRAS, class symbols) is “B (a compound having 3 or more and less than 10 is denoted as B)”. Also, the Kd in assay [2] (SPR Single Cycle Kinetics, 1:1 binding model) is 0.4 nM. In assay [3] (SPR KD ratio HRAS/KRAS, class symbols), the “HRAS/KRAS (ratio of KD value with respect to GDP-bound HRAS wild-type protein to KD value with respect to KRAS)” value was “B (a compound having 3 or more and less than 10 is denoted as B)”. The IC50 in assay [4] is 13.9 nM.
Take `CCC[C@H]1C(=O)N[C@@H]([C@@H](C)CC)C(=O)N(C)CC(=O)N(C)[C@H]2C/C=C\CCN(C2=O)[C@@H](Cc2ccc(C(F)(F)F)cc2)C(=O)N(C)CC(=O)N[C@@H](CCc2cc(F)c(C(F)(F)F)c(F)c2)C(=O)N2C[C@H](OCC)C[C@H]2C(=O)NC2(CCC2)C(=O)N(C)[C@@H](C2CCCC2)C(=O)N(C)[C@H](C(=O)N2CC3CCC(C2)O3)CC(=O)N1C` [PP1315]: the “NRAS/KRAS (ratio of KD value for NRAS to KD value for KRAS)” value in assay [1] (SPR, KD ratio class) is recorded as “AA (a compound having 20 or more is denoted as AA)”. The Kd in assay [2] (setting [5]) amounted to 0.34 nM. Further, the “HRAS/KRAS (ratio of KD value for HRAS to KD value for KRAS)” value in assay [3] (SPR, KD ratio class) is “A (a compound having 10 or more and less than 20 is denoted as A)”. The compound also had an IC50 in assay [4] of 34.5 nM.
With `CCCOC[C@H]1C(=O)N[C@@H]([C@@H](C)CC)C(=O)N(C2CC2)CC(=O)N(C)[C@H]2C/C=C\CCN(C2=O)[C@@H](Cc2ccc(C)cc2)C(=O)N(C)CC(=O)N[C@@H](CCc2ccc(C(F)(F)F)c(OC)c2)C(=O)N2C[C@@H](C)C[C@H]2C(=O)N(C)C2(CCC2)C(=O)N(C)[C@@H](C2CCCC2)C(=O)N(C)[C@H](C(=O)N(C)C)CC(=O)N1C` [PP2367], the “NRAS/KRAS (ratio of KD value for NRAS to KD value for KRAS)” value in assay [1] (SPR) is “A (a compound having 10 or more and less than 20 is denoted as A)”. In addition, the equilibrium dissociation constant (Kd) in assay [2] (SPR, Single Cycle Kinetics) turned out to be 0.075 nM. Besides, the “HRAS/KRAS (ratio of KD value for HRAS to KD value for KRAS)” value in assay [3] (SPR) was “B (a compound having 3 or more and less than 10 is denoted as B)”. Also, in assay [4], the IC50 worked out at 2.1 nM.
Take `CCO[C@@H]1C[C@H]2C(=O)NC3(CC(F)(F)C3)C(=O)N(C)[C@@H](C3CCCC3)C(=O)N(C)[C@H](C(=O)N(C)C)CC(=O)N(C)[C@@H](CC)C(=O)N[C@@H]([C@@H](C)CC)C(=O)N(C)CC(=O)N(C)[C@H]3C/C=C\CCN(C3=O)[C@@H](Cc3ccc(C(F)(F)F)cc3)C(=O)N(C)CC(=O)N[C@@H](CCc3cc(F)c(C(F)(F)F)c(F)c3)C(=O)N2C1` [PP1274, (2S,8S,12R,14S,20S,23S,27S,30S,36S,38Z)-20-cyclopentyl-8-[2-[3,5-difluoro-4-(trifluoromethyl)phenyl]ethyl]-12-ethoxy-27-ethyl-1′,1′-difluoro-N,N,4,19,22,26,32,35-octamethyl-30-[(1S)-1-methylpropyl]-3,6,9,15,18,21,25,28,31,34,42-undecaoxo-2-[[4-(trifluoromethyl)phenyl]methyl]spiro[1,4,7,10,16,19,22,26,29,32,35-undecazatricyclo[34.5.1.0^10,14]dotetracont-38-ene-17,3′-cyclobutane]-23-carboxamide]: in assay [1] (SPR, KD ratio class), the “NRAS/KRAS (ratio of KD value for NRAS to KD value for KRAS)” value was “A (a compound having 10 or more and less than 20 is denoted as A)”. Besides, the Kd in assay [2] (setting [5]) came to 0.032 nM. For the same compound, in assay [3] (SPR, KD ratio class), the “HRAS/KRAS (ratio of KD value for HRAS to KD value for KRAS)” value was “A (a compound having 10 or more and less than 20 is denoted as A)”. Moreover, the IC50 in assay [4] was 7.5 nM.
With `CC[C@H](C)[C@@H]1NC(=O)[C@H](CC)N(C)C(=O)C[C@@H](C(=O)N(C)C)N(C)C(=O)[C@H](C2CCCC2)N(C)C(=O)C2(CCC2)NC(=O)[C@@H]2C[C@@H](C(F)(F)F)CN2C(=O)[C@H](CCc2cc(F)c(C(F)(F)F)c(F)c2)NC(=O)CN(C)C(=O)[C@H](Cc2ccc(C(F)(F)F)cc2)N2CC/C=C\C[C@@H](C2=O)N(C)C(=O)CN(C)C1=O` [PP1133, (2S,8S,12R,14S,20S,23S,27S,30S,36S,38Z)-20-cyclopentyl-8-[2-[3,5-difluoro-4-(trifluoromethyl)phenyl]ethyl]-27-ethyl-N,N,4,19,22,26,32,35-octamethyl-30-[(1S)-1-methylpropyl]-3,6,9,15,18,21,25,28,31,34,42-undecaoxo-12-(trifluoromethyl)-2-[[4-(trifluoromethyl)phenyl]methyl]spiro[1,4,7,10,16,19,22,26,29,32,35-undecazatricyclo[34.5.1.0^10,14]dotetracont-38-ene-17,1′-cyclobutane]-23-carboxamide], the “NRAS/KRAS (ratio of KD value for NRAS to KD value for KRAS)” value in assay [1] (SPR) was “A (a compound having 10 or more and less than 20 is denoted as A)”. The Kd in assay [2] (SPR, Single Cycle Kinetics) is 0.05 nM. Further, in assay [3] (SPR), the “HRAS/KRAS (ratio of KD value for HRAS to KD value for KRAS)” value is “A (a compound having 10 or more and less than 20 is denoted as A)”. Moreover, in assay [4], the IC50 is 16.5 nM.
